pIC50: −log10 of the molar value. Like-named read-outs stand apart in the source and are kept apart here.
How the values were obtained:
Assay type in all cases: biochemical
FGFR1 = target: T1, FGFR1 (Homo sapiens, UniProt P11362); assay: FGFR1 kinase activity inhibition assay (LanthaScreen TR-FRET); details: for IC50: FGFR1 kinase, TR-FRET, read-out: IC50 (nM) FGFR1
T1 construct: cytoplasmic domain [398-822 (terminal) amino acids]; purchased Carna 08-133
Outline: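 Emission ratio 520 nm/495 nm by TR-FRET after stopping reaction with 10 mM EDTA and 60 min incubation at 22°C. Inhibition normalized between no-enzyme (min) and DMSO (max) controls, then fitted to a four-parameter curve (Top, Bottom, HillSlope).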

FGFR2 = target: T2, FGFR2 (Homo sapiens, UniProt P21802); assay: FGFR2 kinase activity inhibition assay (LanthaScreen TR-FRET); details: for IC50: FGFR2 kinase, TR-FRET, read-out: IC50 (nM) FGFR2
T2 construct: FGFR2's cytoplasmic domain [399-821 (terminal) amino acids]; purchased Carna 08-134
T2 sequence (P21802 399-821): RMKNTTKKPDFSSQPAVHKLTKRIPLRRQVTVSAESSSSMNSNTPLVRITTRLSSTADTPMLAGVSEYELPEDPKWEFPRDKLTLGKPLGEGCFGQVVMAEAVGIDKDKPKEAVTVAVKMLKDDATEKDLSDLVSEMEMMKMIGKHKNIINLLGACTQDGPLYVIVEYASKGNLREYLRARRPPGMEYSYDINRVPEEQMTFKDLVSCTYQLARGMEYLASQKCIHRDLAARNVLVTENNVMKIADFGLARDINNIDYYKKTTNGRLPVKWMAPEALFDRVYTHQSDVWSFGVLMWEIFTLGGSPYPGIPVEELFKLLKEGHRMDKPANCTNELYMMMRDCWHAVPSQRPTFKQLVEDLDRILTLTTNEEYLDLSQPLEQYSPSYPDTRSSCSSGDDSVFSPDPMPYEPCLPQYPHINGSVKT
Outline: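 GST-fused FGFR2 cytoplasmic domain (aa 399-821) was run as in the FGFR1 protocol: preincubated 10 min at 23 °C with compound (3-fold series from 1 µM) in 50 mM HEPES pH 7.5, 10 mM MgCl2, 4 mM DTT, 1% DMSO. A 2× mix of 28 nM fluorescein-poly GT/28 µM ATP then reacted 30 min. Tb-PY20/EDTA quench preceded the TR-FRET 520/495 read.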

FGFR3 = target: T3, FGFR3 (Homo sapiens, UniProt P22607); assay: FGFR3 kinase activity inhibition assay (LanthaScreen TR-FRET); details: for IC50: FGFR3 kinase, TR-FRET, read-out: IC50 (nM) FGFR3; for Selectivity (X) FGFR1/FGFR3: ratio of IC50 FGFR1/FGFR3, selectivity towards FGFR3; for Selectivity (X) FGFR2/FGFR3: ratio of IC50 FGFR2/FGFR3, selectivity towards FGFR3; for Selectivity (X) FGFR4/FGFR3: ratio of IC50 FGFR4/FGFR3, selectivity towards FGFR3
T3 construct: FGFR3's cytoplasmic domain [436-806 (terminal) amino acids]; purchased Carna 08-135
T3 sequence (P22607 436-806): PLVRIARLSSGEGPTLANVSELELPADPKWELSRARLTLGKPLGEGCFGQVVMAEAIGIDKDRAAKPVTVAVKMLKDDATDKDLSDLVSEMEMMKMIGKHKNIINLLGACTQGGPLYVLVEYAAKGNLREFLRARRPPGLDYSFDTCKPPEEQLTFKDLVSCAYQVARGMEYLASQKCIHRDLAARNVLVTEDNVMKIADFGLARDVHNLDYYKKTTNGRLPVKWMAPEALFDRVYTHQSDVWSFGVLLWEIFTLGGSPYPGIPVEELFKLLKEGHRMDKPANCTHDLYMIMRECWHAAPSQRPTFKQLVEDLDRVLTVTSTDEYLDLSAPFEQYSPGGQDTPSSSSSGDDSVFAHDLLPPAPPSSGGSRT
Outline: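 Read-out is TR-FRET, with the 520 nm/495 nm emission ratio normalised to DMSO (max) and enzyme-free (min) controls. Enzyme was the FGFR3 cytoplasmic domain, residues 436-806. EDTA (10 mM) stopped the reaction, followed by 60 min at 22 °C before reading.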

FGFR4 = target: T4, FGFR4 (Homo sapiens, UniProt P22455); assay: FGFR4 kinase activity inhibition assay (LanthaScreen TR-FRET); details: for IC50: FGFR4 kinase, TR-FRET, read-out: IC50 (nM) FGFR4
T4 construct: FGFR4's cytoplasmic domain [460-802 (terminal) amino acids]; purchased Carna 08-136
T4 sequence (P22455 460-802): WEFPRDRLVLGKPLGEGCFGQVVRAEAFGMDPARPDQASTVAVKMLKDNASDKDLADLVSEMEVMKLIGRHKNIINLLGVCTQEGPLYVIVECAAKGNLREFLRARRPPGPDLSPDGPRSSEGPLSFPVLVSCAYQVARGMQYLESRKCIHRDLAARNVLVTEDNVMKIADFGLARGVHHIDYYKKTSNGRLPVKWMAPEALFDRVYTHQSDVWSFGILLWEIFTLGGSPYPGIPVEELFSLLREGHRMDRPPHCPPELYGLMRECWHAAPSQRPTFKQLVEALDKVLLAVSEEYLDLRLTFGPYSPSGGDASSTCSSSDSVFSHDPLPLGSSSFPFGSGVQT
Method: FGFR1 kinase activity was measured using Invitrogen LanthaScreen™ assay technology, which utilized fluorescently-labeled peptides and terbium-labeled antibodies to directly measure an amount of the phosphorylated substrate through time-resolved fluorescence energy transfer (TR-FRET). • ① The test compounds were diluted: starting from a concentration of 1 µM, with a buffer solution in a three-fold serial dilution, the buffer solution being composed of 50 mM HEPES, 10 mM MgCl2, 0.01% TritonX-100, 0.01% BSA, 4 mM DTT (pH 7.5), and 1% DMSO; • ② 0.01 nM recombinant human GST fusion protein FGFR1's cytoplasmic domain [398-822 (terminal) amino acids] (Carna: 08-133) was formulated into a 2 × solution, mixed well with the test compounds, and incubated at 23°C for 10 minutes; • ③ 28 nM Fluorescein-Poly GT peptide substrate (Life Technologies: PV3611) and 28 µM ATP were formulated into a 2 × solution, mixed well with the test compounds and enzyme in ②, and incubated at 23°C for 30 minutes; • ④ 10 µL of 2nM Tb-PY20 antibody (Life Technologies: PV3552) and 10 mM EDTA were added to quench the kinase reaction, and incubated at 22°C for 60 minutes. • ⑤ The reaction was measured using a PerkinElmer EnVision multimode plate reader through TR-FRET dual wavelength detection. • 1. The RFU values were copied from the Envision program. • 2. The ratio of RFU 520nm/RFU 495nm was calculated. • 3. The value of the ratio was converted to a percentage inhibition value. % Inhibition = (max-data)/(max-min) × 100 [formula]
"Min" represents the ratio of the control without enzyme, "max" represents the ratio of the DMSO control, and "data" represents the ratio of the compounds in wells with different concentrations.
"Top" refers to the maximum response, "Bottom" refers to the minimum response, and "HillSlope" refers to the slope of the curve.
According to the same method as that in the FGFR1 kinase activity inhibition assay, the inhibitory activities against FGFR2, FGFR3 and FGFR4 were tested using FGFR2's cytoplasmic domain [399-821 (terminal) amino acids] (Carna: 08-134), FGFR3's cytoplasmic domain [436-806 (terminal) amino acids] (Carna: 08-135) and FGFR4's cytoplasmic domain [460-802 (terminal) amino acids] (Carna: 08-136), respectively. Table 1 reports the kinase activity inhibition results and selectivity towards FGFR3 of each compound.

T1 sequence (P11362 398-822): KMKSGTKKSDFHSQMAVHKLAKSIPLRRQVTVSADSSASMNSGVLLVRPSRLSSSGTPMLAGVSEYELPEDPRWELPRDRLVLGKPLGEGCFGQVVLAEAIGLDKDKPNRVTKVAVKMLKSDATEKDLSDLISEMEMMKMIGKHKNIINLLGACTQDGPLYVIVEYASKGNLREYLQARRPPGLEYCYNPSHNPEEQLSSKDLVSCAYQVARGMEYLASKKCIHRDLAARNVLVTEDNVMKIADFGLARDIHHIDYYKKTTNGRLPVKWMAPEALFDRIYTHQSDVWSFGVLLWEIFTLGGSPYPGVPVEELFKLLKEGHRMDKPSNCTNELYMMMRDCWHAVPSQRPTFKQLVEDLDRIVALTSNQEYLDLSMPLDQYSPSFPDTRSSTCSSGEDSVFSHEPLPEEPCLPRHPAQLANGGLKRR

SMILES	IC50 (FGFR1) [nM]	IC50 (FGFR2) [nM]	IC50 (FGFR3) [nM]	Selectivity (X) FGFR1/FGFR3 (FGFR3)	Selectivity (X) FGFR2/FGFR3 (FGFR3)	Selectivity (X) FGFR4/FGFR3 (FGFR3)	IC50 (FGFR4) [nM]	pIC50 (FGFR1)	pIC50 (FGFR2)	pIC50 (FGFR3)	pIC50 (FGFR4)
CNCCNC(=O)c1ccc2[nH]nc(-c3cn(C)nn3)c2c1 [Example 74, 3-(1-methyl-1H-1,2,3-triazol-4-yl)-N-(2-(methylamino)ethyl)-1H-indazole-5-carboxamide]	> 100	> 100	10 to 100	C (C represents 50 ≤ multiple X<100)	B (B represents 20 ≤ multiple X<50)	D (D represents 100 ≤ multiple X)	> 100	–	–	–	–
Cc1c[nH]c(-c2n[nH]c3ccc(C(=O)NCCN(C)C)cc23)n1 [Example 80, N-(2-(dimethylamino)ethyl)-3-(4-methyl-1H-imidazol-2-yl)-1H-indazole-5-carboxamide]	> 100	> 100	10 to 100	D (D represents 100 ≤ multiple X)	D (D represents 100 ≤ multiple X)	D (D represents 100 ≤ multiple X)	> 100	–	–	–	–
CC(Oc1ccc2[nH]nc(-c3cnn(C)c3)c2c1)c1cccc2ncc(Cl)cc12 (stereo not shown) [Example 94, 3-chloro-5-(1-((3-(1-methyl-1H-pyrazol-4-yl)-1H-indazol-5-yl)oxy)ethyl)quin oline]	–	–	–	C (C represents 50 ≤ multiple X<100)	A (A represents 1 ≤ multiple X<20)	B (B represents 20 ≤ multiple X<50)	–	< 7.00	7.00 to 8.00	7.00 to 8.00	< 7.00
CC(C)c1ccc2ncccc2c1C(C)Oc1ccc2[nH]nc(-c3cnn(C)c3)c2c1 (stereo not shown) [Example 107, 6-isopropyl-5-(1-((3-(1-methyl-1H-pyrazol-4-yl)-1H-indazol-5-yl)oxy)ethyl)qu inoline]	> 100	10 to 100	1 to 10	B (B represents 20 ≤ multiple X<50)	A (A represents 1 ≤ multiple X<20)	B (B represents 20 ≤ multiple X<50)	> 100	–	–	–	–
CC(Oc1ccc2[nH]nc(-c3cnn(C)c3)c2c1)c1cccn2nccc12 (stereo not shown) [Example 132, 3-(1-methyl-1H-pyrazol-4-yl)-5-(1-(pyrazolo[1,5-a]pyridin-4-yl)ethoxy)-1H-indazole]	10 to 100	1 to 10	< 1	B (B represents 20 ≤ multiple X<50)	A (A represents 1 ≤ multiple X<20)	B (B represents 20 ≤ multiple X<50)	10 to 100	–	–	–	–
Cc1cc(C(C)Oc2ccc3[nH]nc(-c4cnn(C)c4)c3c2)c2cccnc2c1 (stereo not shown) [Example 133, 7-methyl-5-(1-((3-(1-methyl-1H-pyrazol-4-yl)-1H-indazol-5-yl)oxy)ethyl)qu inoline]	10 to 100	1 to 10	< 1	B (B represents 20 ≤ multiple X<50)	A (A represents 1 ≤ multiple X<20)	D (D represents 100 ≤ multiple X)	> 100	–	–	–	–
CC(Oc1ccc2[nH]nc(-c3cnn(C)c3)c2c1)c1cc(Cl)cc2ncccc12 (stereo not shown) [Example 134, 7-chloro-5-(1-((3-(1-methyl-1H-pyrazol-4-yl)-1H-indazol-5-yl)oxy)ethyl)qu inoline]	> 100	10 to 100	1 to 10	C (C represents 50 ≤ multiple X<100)	A (A represents 1 ≤ multiple X<20)	D (D represents 100 ≤ multiple X)	> 100	–	–	–	–
CC(Nc1ccc2[nH]nc(-c3cnn(C)c3)c2c1)c1cccc2nccnc12 (stereo not shown) [Example 135, 3-(1-methyl-1H-pyrazol-4-yl)-N-(1-(quinoxalin-5-yl)ethyl)-1H-indazole-5-amine]	10 to 100	1 to 10	1 to 10	B (B represents 20 ≤ multiple X<50)	A (A represents 1 ≤ multiple X<20)	B (B represents 20 ≤ multiple X<50)	10 to 100	–	–	–	–

More lines, main results first:

IC50 (FGFR1) [nM]	IC50 (FGFR2) [nM]	IC50 (FGFR3) [nM]	Selectivity (X) FGFR1/FGFR3 (FGFR3)	Selectivity (X) FGFR2/FGFR3 (FGFR3)	Selectivity (X) FGFR4/FGFR3 (FGFR3)	IC50 (FGFR4) [nM]	SMILES	pIC50 (FGFR1)	pIC50 (FGFR2)	pIC50 (FGFR3)	pIC50 (FGFR4)
10 to 100	10 to 100	1 to 10	B (B represents 20 ≤ multiple X<50)	A (A represents 1 ≤ multiple X<20)	B (B represents 20 ≤ multiple X<50)	> 100	CC(Oc1ccc2[nH]nc(-c3cnn(C)c3)c2c1)c1c(C2CC2)ccc2ncccc12 (stereo not shown) [Example 116, 6-cyclopropyl-5-(1-((3-(1-methyl-1H-pyrazol-4-yl)-1H-indazol-5-yl)oxy)ethyl)qui noline]	–	–	–	–
10 to 100	1 to 10	1 to 10	B (B represents 20 ≤ multiple X<50)	A (A represents 1 ≤ multiple X<20)	B (B represents 20 ≤ multiple X<50)	10 to 100	CC(Oc1ccc2[nH]nc(-c3cnn(C)c3)c2c1)c1cccc2nnccc12 (stereo not shown) [Example 119, 5-(1-((3-(1-methyl-1H-pyrazol-4-yl)-1H-indazol-5-yl)oxy)ethyl)cinnoline]	–	–	–	–
10 to 100	1 to 10	< 1	B (B represents 20 ≤ multiple X<50)	A (A represents 1 ≤ multiple X<20)	B (B represents 20 ≤ multiple X<50)	10 to 100	[2H]C([2H])([2H])C(Oc1ccc2[nH]nc(-c3cnn(C)c3)c2c1)c1c(C)ccc2ncccc12 (stereo not shown) [Example 122, 6-methyl-5-(1-((3-(1-methyl-1H-pyrazol-4-yl)-1H-indazol-5-yl)oxy)ethyl-2,2,2-d3)quinoline]	–	–	–	–
10 to 100	1 to 10	< 1	B (B represents 20 ≤ multiple X<50)	A (A represents 1 ≤ multiple X<20)	B (B represents 20 ≤ multiple X<50)	10 to 100	CC(Oc1ccc2[nH]nc(-c3cnn(C)c3)c2c1)c1cc(F)cc2ncccc12 (stereo not shown) [Example 124, 7-fluoro-5-(1-((3-(1-methyl-1H-pyrazol-4-yl)-1H-indazol-5-yl)oxy)ethyl)qu inoline]	–	–	–	–
10 to 100	1 to 10	1 to 10	B (B represents 20 ≤ multiple X<50)	A (A represents 1 ≤ multiple X<20)	C (C represents 50 ≤ multiple X<100)	> 100	Cc1ccnc2cccc(C(C)Oc3ccc4[nH]nc(-c5cnn(C)c5)c4c3)c12 (stereo not shown) [Example 126, 4-methyl-5-(1-((3-(1-methyl-1H-pyrazol-4-yl)-1H-indazol-5-yl)oxy)ethyl)qu inoline]	–	–	–	–

Source: EP4644383A1 (Jiangsu Yahong Meditech Co., Ltd., priority 2022, dated 2024)
